Assay results from US20240318142A1, “METHOD FOR PRODUCING RENAL INTERSTITIAL PROGENITOR CELLS, ERYTHROPOIETIN-PRODUCING CELLS, AND METHOD FOR PRODUCING RENIN-PRODUCING CELLS” (KYOTO UNIVERSITY, priority 2021, published 2024).

What was measured:
hiPSC-derived IPCs [1] = assay: qRT-PCR of EPO after further differentiation induction from IPCs (renal EPO-producing cells); assay type: cell-based, human; settings: for EPO expression compared to the combination of SB431542 and SAG: combination of A83-01 and SAG in CFR medium, FIG. 10; for effect on the SAG-induced EPO up-regulation: modulator together with SAG 500 nM, CHIR99021, RA, and A83-01; for effect on the SAG-induced EPO up-regulation / EPO expression: FIG. 15; for EPO expression: SHH signal modulators under induction conditions using CHIR99021, RA, and A83-01, Days 11 to 14; for expression of EPO: combination of SB431542 and SAG (500 nM), 5% O2, FG-4592 and RA present, FIG. 9
Method: (§1) FIG. 9 is a diagram illustrating results of qRT-PCR analysis of EPO and renin carried out on Days 11 to 14, that is, after obtaining renal interstitial progenitor cells, for comparison of the effects of combinations of candidate differentiation induction factors for renal EPO-producing cells or renin-producing cells. The SAG concentration was 500 nM, and the concentrations of SB and CHIR are expressed in the unit of μM.
(§2) FIG. 10 is a diagram illustrating results of qRT-PCR analysis of EPO and renin on Days 11 to 14, that is, after obtaining renal interstitial progenitor cells, for comparison of the effects of combinations of various candidate differentiation induction factors. The SAG concentration was 500 nM; the concentrations of SB and A83 are expressed in the unit of μM; LDN is expressed in the unit of nM; and TGFβ1, BMP7, and activin (ACT) are expressed in the unit of ng/mL.
FIG. 15 is a diagram illustrating results of qRT-PCR analysis of EPO carried out on Days 11 to 14, that is, after obtaining renal interstitial progenitor cells, for comparison of the effects of various Sonic Hedgehog (SHH) signal modulators under induction conditions using CHIR99021, RA, and A83-01. So, Vi, Pu, Sa, and Ga represent sonidegib, vismodegib, purmophamine, SANT-1, and GANT61, respectively, and their concentrations are expressed in the unit of μM. The concentration of SAG was 500 nM, and the concentration of SHH was 100 ng/mL.
(§3) First, using the IPCs on Day 11, culture was performed under 5% O2 hypoxic conditions in the presence of FG-4592 (N-[(4-hydroxy-1-methyl-7-phenoxy-3-isoquinolinyl)carbonyl]-glycine) and RA with addition of various factors. By measuring the expression of EPO and renin, screening for induction factors for renin-producing cells and renal EPO-producing cells was carried out.
Subsequently, the effects of various SHH signal modulators in a system for differentiation induction from IPCs to EPO-producing cells were investigated (FIG. 15). Several SMO antagonists (sonidegib, vismodegib, and SANT-1) and agonists (SAG and purmophamine), a GLI1 inhibitor (GANT61), and human SHH protein were tested.

[2] = system: PPS cells obtained by differentiation induction from human iPS cells; assay: Induction of FOXD1-positive renal interstitial progenitor cells (IPC) from PPS cells, flow cytometric analysis (FOXD1 and OSR1) on Day 11; assay type: cell-based; settings: for induction of FOXD1-positive cells: 5 days of treatment (Days 6 to 11) with the combination CHIR99021 1 μM, SB431542 10 μM and RA 100 nM, FIG. 3; for induction efficiency for OSR1-positive FOXD1-positive cells: addition of IL-1β (10 ng/mL) and SAG (500 nM) together on Days 6 to 8, FIG. 6
Method: FIG. 3 is a diagram illustrating results of flow cytometric analysis (FOXD1 and OSR1), carried out on Day 11, of cells that were treated with various combinations of factors during the differentiation induction period of Days 6 to 11 (the period corresponding to “Screening” in FIG. 1). The following concentrations were employed: 1 μM CHIR99021 (CHIR), 10 μM SB431542 (SB), 100 nM retinoic acid (RA), 200 ng/mL FGF9, and 25 ng/mL Noggin.
FIG. 5 is a diagram illustrating results of flow cytometric analysis (FOXD1 and OSR1), carried out on Day 11, of cells that were treated or not treated with Smoothened Agonist (SAG) (concentration, 500 nM) during the differentiation induction period of Days 6 to 8. ** indicates p<0.01 (Student's t-test), and NS indicates “no significant difference”.
FIG. 6 is a diagram illustrating results of flow cytometric analysis (FOXD1 and OSR1), carried out on Day 11, of cells that were treated with various factors during the differentiation induction period of Days 6 to 8. The following concentrations were employed: 1 μM CHIR, 10% Wnt3a, 200 ng/mLRSPO1 (R-Spondin-1), 500 nM SAG, 10 ng/mL IL-1β, 50 ng/mL Estradiol, and 10 ng/mL TGFβ1.
Human iPS cells (hiPSCs) (17K6:OSR1-GFP/FOXD1-tdTomato double knock-in hiPSCs) were first subjected to enzyme treatment for 5 minutes using a 1:1 mixture of TrypLE Select Enzyme (Thermo Fisher Scientific) and 0.5 mM EDTA/PBS, and then washed with PBS(−). Thereafter, the cells were detached using a cell scraper, and then dissociated into single cells by gentle pipetting. One day before the start of differentiation, the cells were plated into a 24-well plate (CORNING) at a density of 1.3×10^4 cells/cm^2 together with 0.5 mL of Stem Fit AK02N (Ajinomoto Healthy Supply Co., Inc.) supplemented with 10 μM Y-27632 and 2.4 μL/mL iMatrix-511 (Matrixome). Twenty-four hours later (Day 0), 5 μM CHIR99021 (Wako), 10 nM RA (Sigma), 1 ng/mL BMP4 (Peprotech), and 100 ng/mL bFGF (Wako) were added to a serum-free differentiation medium comprising DMEM/F12 Glutamax (Thermo Fisher Scientific), B27 supplement minus vitamin A (Thermo Fisher Scientific), and 0.5× penicillin/streptomycin (hereinafter referred to as basal medium), and then culture was started. Twenty-four hours thereafter (Day 1), culture was performed with a basal medium supplemented with 5 μM CHIR99021, 100 ng/mL bFGF, and 1 ng/mL BMP7 (R&D Systems). On Day 2, the medium was switched to a basal medium supplemented with 5 μM CHIR99021, 1 ng/mL BMP7, and 10 μM A83-01 (Wako). On Day 3, the medium was switched to a basal medium supplemented with 5 μM CHIR99021, 30 ng/mL bFGF, 10 ng/mL activin A (R&D Systems), and 30 μM Y-27632 (Wako). On Day 4, the cells were washed with PBS(−), treated with Accumax (Innovative Cell Technologies), and then dissociated into single cells by gentle pipetting, followed by plating into a 24-well plate (CORNING) at a density of 1.05×10^5 cells/cm^2 (2D culture) or plating into a 96-well low-cell-adhesive plate (Thermo Fisher Scientific) at a density of 2.0×10^4 cells/cm^2 (3D culture). Culture was performed for 48 hours using a basal medium supplemented with 5 μM CHIR99021, 30 ng/mL bFGF, 10 ng/mL activin A, and 30 μM Y-27632 (in addition, 1.2 μL/well iMatrix-511 or a laminin-E8 fragment library in the case of 2D culture). By this, HOXC10- and CITED1-positive PPS cells were induced.
For the PPS cells on Day 6 of the culture protocol in FIG. 1, several differentiation induction conditions were tested by combining various factors. […]

hiPSC-derived IPCs [3] = assay: qRT-PCR of renin and mesangial/JG cell markers after further differentiation induction from IPCs (renin-producing cells); assay type: cell-based, human
Method: as §1, §2
FIG. 11 is a diagram illustrating results of qRT-PCR analysis of renin on Days 11 to 14, that is, after obtaining renal interstitial progenitor cells, for comparison of the effects of various factors. In the presence of CHIR99021, RA, and FG-4592 (CFR), the effects of BMP4, BMP5, and BMP7 (10 ng/mL or 100 ng/mL) were investigated under conditions with or without treatment by SB431542 (1 μM). SB is expressed in the unit of […], and TGFβ1 and ACT are expressed in the unit of ng/mL.
FIG. 12 is a diagram illustrating results of qRT-PCR analysis of marker expression for the mesangial cell lineage (GATA3, renin, and GJA5) and IPCs (FOXD1) at Hour 0 and Hour 96 after treatment with CFR+BMP7+SB. iPSC represents the control.
FIG. 13 is a diagram illustrating results of qRT-PCR analysis of cells that were subjected to treatment under hypoxic (CFR+B7+SB in 5% O2) or normal oxygen (CFR+B7+SB minus FG-4592 in 20% O2) conditions on Days 11 to 15, that is, after obtaining renal interstitial progenitor cells, which analysis was carried out for markers for JG (renin and GJA4) and mesangial cells (EBF1, GJA5, ITGA8, and GATA3). * indicates p<0.05; ** indicates p<0.01; and NS indicates “no significant difference” (Student's t-test).
FIG. 14 is a diagram illustrating results of qRT-PCR analysis of cells that were subjected to treatment with VEGF (100 ng/mL) or axitinib (3 μM) and also to treatment under hypoxic conditions (CFR+B7+SB in 5% O2) or normal conditions (CFR+B7+SB minus FG-4592 in 20% O2) on Days 11 to 15, that is, after obtaining renal interstitial progenitor cells, which analysis was carried out for markers for JG (renin and GJA4), mesangial cells (EBF1, GJA5, ITGA8, and GATA3), and VEGFA.
as §3

[4] = combination of CHIR99021 and SB431542, absence of SAG, 5% O2, FG-4592 and RA present, FIG. 9
[5] = BMP (10 or 100 ng/mL) added to CFR medium in the presence of SB431542 (1 μM), FIG. 11

In the case of `Cc1cccc(-c2nn(C(=S)Nc3ccccc3)cc2-c2ccnc3ccccc23)n1` [A83-01], the “EPO expression compared to the combination of SB431542 and SAG” value (hiPSC-derived IPCs [1]) is reported as “higher EPO expression”.

With `Cc1c[nH]c(-c2cnc(NCCNc3ccc(C#N)cn3)nc2-c2ccc(Cl)cc2Cl)n1` [CHIR99021] the “induction of FOXD1-positive cells” value [2] was “could be induced” and the expression of renin (hiPSC-derived IPCs [3]; [4]) was “increase the expression of renin”.

For `CN(C)c1ccccc1CN1CCCN(Cc2ccccc2N(C)C)C1c1ccncc1` [GANT61], the “effect on the SAG-induced EPO up-regulation” value (“effect” for short) (hiPSC-derived IPCs [1]) was “did not reduce the effect of SAG”.

For `CNC1CCC(N(Cc2cccc(-c3ccncc3)c2)C(=O)c2sc3ccccc3c2Cl)CC1` (stereo not shown) [SAG], the “induction efficiency for FOXD1-positive cells” value ([2]; SAG 500 nM added on Days 6 to 8 to CHIR99021+SB431542+RA, FIG. 5) was “further increased”, the “induction efficiency for OSR1-positive FOXD1-positive cells” value [2] was “increases” and the EPO expression (hiPSC-derived IPCs [1]) was “up-regulation of EPO”. For the same molecule, the “EPO expression compared to the combination of SB431542 and SAG” value (hiPSC-derived IPCs [1]) was “higher EPO expression” and the “expression of EPO” value (hiPSC-derived IPCs [1]) was “increase the expression of EPO”.

`Cc1nn(-c2ccccc2)c(C)c1/C=N/N1CCN(Cc2ccccc2)CC1` [SANT-1] was tested, and the “effect” value (hiPSC-derived IPCs [1]) was “reduced the effect of SAG”.

For `NC(=O)c1ccc(-c2nc(-c3ccc4c(c3)OCO4)c(-c3ccccn3)[nH]2)cc1` [SB431542], the “induction of FOXD1-positive cells” value [2] was “could be induced”, the “expression of EPO” value (hiPSC-derived IPCs [1]) was “increase the expression of EPO” and the expression of renin (hiPSC-derived IPCs [3]; [4]) was “increase the expression of renin”.

In the case of `c1ccc2c(Oc3nc(Nc4ccc(N5CCOCC5)cc4)c4ncn(C5CCCCC5)c4n3)cccc2c1` [purmophamine, 9-cyclohexyl-N-[4-(4-morpholinyl)phenyl]-2-(1-naphthalenyloxy)-9H-purine-6-amine], the EPO expression (hiPSC-derived IPCs [1]) is reported as “up-regulation of EPO”.

For `Cc1c(C(=O)Nc2ccc(N3C[C@@H](C)O[C@@H](C)C3)nc2)cccc1-c1ccc(OC(F)(F)F)cc1` [sonidegib], the “effect” value (hiPSC-derived IPCs [1]) was “reduced the effect of SAG”.

For `CS(=O)(=O)c1ccc(C(=O)Nc2ccc(Cl)c(-c3ccccn3)c2)c(Cl)c1` [vismodegib], the “effect” value (hiPSC-derived IPCs [1]) was “reduced the effect of SAG”.

For “IL-1β: interleukin-1β, preferably human IL-1β protein”, the “induction efficiency for OSR1-positive FOXD1-positive cells” value [2] was “increases”.

In the case of VEGF, the “expression of markers for juxtaglomerular (JG) cells and mesangial cells” value (hiPSC-derived IPCs [3]; VEGF 100 ng/mL added to CFR+B7+SB, Days 11 to 15, FIG. 14) is reported as “increases”.

B1: BMP7: bone morphogenetic protein 7 (protein, UniProt P18075 293-431, looked up)
Bone morphogenetic protein 7: STGSKQRSQNRSKTPKNQEALRMANVAENSSSDQRQACKKHELYVSFRDLGWQDWIIAPEGYAAYYCEGECAFPLNSYMNATNHAIVQTLVHFINPETVPKPCCAPTQLNAISVLYFDDSSNVILKKYRNMVVRACGCH
B1 was tested, and the expression of renin (hiPSC-derived IPCs [3]; [5]) was “high expression of renin” and the expression of renin (hiPSC-derived IPCs [3]; added to CFR medium (CHIR99021, FG-4592, RA), absence of SAG, FIG. 10) was “positively affected”.

B2: BMP5: bone morphogenetic protein 5 (protein, UniProt P22003 317-454, looked up)
Bone morphogenetic protein 5: AANKRKNQNRNKSSSHQDSSRMSSVGDYNTSEQKQACKKHELYVSFRDLGWQDWIIAPEGYAAFYCDGECSFPLNAHMNATNHAIVQTLVHLMFPDHVPKPCCAPTKLNAISVLYFDDSSNVILKKYRNMVVRSCGCH
For B2, the expression of renin (hiPSC-derived IPCs [3]; [5]) was “high expression of renin”.

B3: BMP4: bone morphogenetic protein 4 (protein, UniProt P12644 293-408, looked up)
Bone morphogenetic protein 4: SPKHHSQRARKKNKNCRRHSLYVDFSDVGWNDWIVAPPGYQAFYCHGDCPFPLADHLNSTNHAIVQTLVNSVNSSIPKACCVPTELSAISMLYLDEYDKVVLKNYQEMVVEGCGCR
B3 was tested, and the expression of renin (hiPSC-derived IPCs [3]; [5]) was “high expression of renin”.
